In brackets after ≈: the same amount, converted by molar mass. Where two headings read alike, the source gives them in different places.
Legend:
Test in all cases: MIC determination by in vitro antifungal assay
[1] = tested on: Aspergillus fumigatus NRRL 163 (Q); assay type: cell-based; conditions: strain Q = A. fumigatus NRRL 163
How it was run: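 Twofold dilutions spanning 0.06–31.3 μg/mL were incubated with fungi for 48 h at 35° C in MOPS-buffered RPMI 1640 (pH 7.0), following modified CLSI M27-A3 and M38-A2 methods. Yeast cells were grown overnight in YPD, set to OD600 0.12 (~1×10^6 CFU/mL), then diluted 1:100.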

[2] = tested on: A. fumigatus NRRL 5109 (R); assay type: cell-based, Aspergillus fumigatus; conditions: strain R = A. fumigatus NRRL 5109
Procedure: (§1) 10 mg/mL stock solutions of compounds 1a-9j were prepared in dimethyl sulfoxide (DMSO) and were stored at −20° C. in the dark. The antifungal agent amphotericin B (AmB) was purchased from VWR (Radnor PA, USA). AmB was dissolved in DMSO at a final concentration of 5 mg/mL and was stored at −20° C., protected from light. Candida albicans American Type Culture Collection (ATCC) 10231 (strain A), C. albicans ATCC 64124 (B), and C. albicans ATCC MYA-2876 (C) were obtained from Utah State University. C. albicans ATCC 90819 (D), C. albicans ATCC MYA-2310 (E), C. albicans ATCC MYA-1237 (F), C. albicans ATCC MYA-1003 (G), Candida glabrata ATCC 2001 (H), Candida krusei ATCC 6258 (I), Candida parapsilosis ATCC 22019 (J), Cryptococcus neoformans ATCC MYA-895 (M), Aspergillus terreus ATCC MYA-3633 (N), and Aspergillus flavus ATCC MYA-3631 (0) were obtained from the American Type Culture Collection (ATCC; Manassas, VA, USA). Aspergillus nidulans ATCC 38163 (P) was obtained from University of Kentucky. Clinically derived Aspergillus fumigatus NRRL 163 (Q), A. fumigatus NRRL 5109 (R), and A. fumigatus NRRL 6113 (S) were obtained from Northern Regional Research Laboratory (NRRL). Candida auris 384 (K), C. auris 390 (L), and fungal strains 381-400 (including 10 C. auris (AR Bank #381-390), 3 Candida duobushaemulonii (AR Bank #391, AR Bank #392, and AR Bank #394), 2 Candida haemulonii (AR Bank #393 and AR Bank #395), 1 Kodameae ohmeri (AR Bank #396), 1 C. krusei (AR Bank #397), 1 Candida lusitaniae (AR Bank #398), and 2 Saccharomyces cerevisiae strains (AR Bank #399 and AR Bank #400)) were part of a larger fungal library from the AR Bank maintained by the Centers for Disease Control and Prevention (CDC; Atlanta, GA, USA). Filamentous fungi and yeasts were cultivated at 35° C. in RPMI 1640 medium (with L-glutamine, without sodium bicarbonate, Sigma-Aldrich, St. Louis, MO) buffered to a pH of 7.0 with 0.165 M morpholinepropanesulfonic acid (MOPS) buffer (Sigma-Aldrich). For cytotoxicity assays, HepG2 and the mouse macrophage cell line J774A.1 were obtained from University of Kentucky. The human embryonic kidney cell line, HEK-293, was bought from the ATCC. Mammalian cells were grown in Dulbecco's Modified Eagle's Medium (DMEM) (from VWR) with 10% fetal bovine serum (FBS) (from VWR) and 1% Pen/Strep (from ATCC). Cell lines were cultured at 37° C. with 5% CO2 and passaged by trypsinization with 0.05% trypsin: 0.53 mM EDTA (from Sigma-Aldrich).
(§2) The MIC values of compounds 1a-9j against yeast cells (strains A-P and 381-400) were determined in 96-well plates as described in the CLSI documents M27-A3 and M38-A2 with minor modifications.^2 A single colony of freshly prepared yeast cells was used to inoculate 5 mL of yeast extract peptone dextrose (YPD) broth prior to incubation overnight with shaking at 200 rpm at 35° C. From the actively growing yeast culture, 100 µL were then transferred to 900 μL of RPMI 1640 medium and re-adjusted to achieve OD600 of 0.12 (˜1×10^6 CFU/mL). The cell suspension was further diluted to achieve 1:100 in RPMI 1640 medium. 100 μL of cells were added to the wells of a 96-well microtiter plates that contained 100 µL of the compound solution to obtain concentrations of 0.06-31.3 μg/mL of compounds 1a-9j or AmB prior to incubation for 48 h at 35° C.
(§3) Finally, the activity of these monohydrazides was explored against […] non-Candida strains: Cryptococcus neoformans ATCC MYA-895 (M), Aspergillus terreus ATCC MYA-3633 (N), Aspergillus flavus ATCC MYA-3631 (O), Aspergillus nidulans ATCC 38163 (P), Aspergillus fumigatus NRRL 163 (Q), A. fumigatus NRRL 5109 (R), and A. fumigatus NRRL 6113 (S) (Tables 1A and 1B). The double dilution method was used with concentrations ranging from 0.06 to 31.3 j·tg mL^−1 for monohydrazides 1a-9j, and the commercially available positive antifungal control amphotericin B (AmB).

[3] = tested on: A. fumigatus NRRL 6113 (S); assay type: cell-based, Aspergillus fumigatus; conditions: for MIC: strain S = A. fumigatus NRRL 6113
Procedure: as §1, §2, §3

[4] = Aspergillus fumigatus, NRRL163, read-out: MIC
[5] = Aspergillus fumigatus, NRRL5109, read-out: MIC
[6] = Aspergillus fumigatus, NRRL6113, read-out: MIC

Row | Structure (SMILES) | MIC [1] [μg/mL^−1] | MIC [2] [μg/mL^−1] | MIC [3] [μg/mL^−1] | MIC [1, 4] [µg/mL] | MIC [2, 5] [µg/mL] | MIC [3, 6] [µg/mL] | MIC (highest activity against strain S) [3] [j·tg mL^−1]
1 | C[C@@H]1[C@H](O)[C@@H](C)/C=C/C=C/C=C/C=C/C=C/C=C/C=C/[C@H](O[C@@H]2O[C@H](C)[C@@H](O)[C@H](N)[C@@H]2O)C[C@@H]2O[C@](O)(C[C@@H](O)C[C@@H](O)[C@H](O)CC[C@@H](O)C[C@@H](O)CC(=O)O[C@H]1C)C[C@H](O)[C@H]2C(=O)O [AmB, amphotericin B, reference compound] | 0.98 | 0.98 | 1.95 | – | – | – | –
2 | O=C(NNc1cccc(F)c1)c1ccc(F)cc1F [Compound 1a] | >31.3 | >31.3 | >31.3 | – | – | – | –
3 | O=C(NNc1ccc(F)cc1)c1ccc(F)cc1F [Compound 1d] | – | – | – | > 31.3 | > 31.3 | > 31.3 | –
4 | COc1ccc(NNC(=O)c2ccc(F)cc2F)cc1 [Compound 1f] | – | – | – | > 31.3 | > 31.3 | > 31.3 | –
5 | O=C(NNc1cccc(F)c1)c1ccccn1 [Compound 2a] | >31.3 | >31.3 | >31.3 | – | – | – | –
6 | O=C(NNc1cccc(Cl)c1)c1ccccn1 [Compound 2b] | >31.3 | >31.3 | >31.3 | – | – | – | –
7 | COc1cccc(NNC(=O)c2ccccn2)c1 [Compound 2c] | 7.8 | 3.9 | >31.3 | – | – | – | –
8 | O=C(NNc1ccc(F)cc1)c1ccccn1 [Compound 2d] | – | – | – | 31.3 (≈ 135 µM) | 7.8 (≈ 33.7 µM) | 15.6 (≈ 67.5 µM) | 15.6
9 | O=C(NNc1ccc(Cl)cc1)c1ccccn1 [Compound 2e] | >31.3 | 7.8 | 15.6 | – | – | – | 15.6
10 | COc1ccc(NNC(=O)c2ccccn2)cc1 [Compound 2f] | – | – | – | > 31.3 | > 31.3 | 31.3 (≈ 129 µM) | –
11 | O=C(NNc1ccc(F)cc1F)c1ccccn1 [Compound 2g] | – | – | – | > 31.3 | 15.6 (≈ 62.6 µM) | 31.3 (≈ 126 µM) | –
12 | O=C(NNc1cc(F)ccc1F)c1ccccn1 [Compound 2h] | – | – | – | > 31.3 | 15.6 (≈ 62.6 µM) | > 31.3 | –
13 | O=C(NNc1cc(F)cc(F)c1)c1ccccn1 [Compound 2i] | – | – | – | ≤ 0.06 | ≤ 0.06 | 31.3 (≈ 126 µM) | –
14 | O=C(NNc1cc(Cl)cc(Cl)c1)c1ccccn1 [Compound 2j] | – | – | – | > 31.3 | > 31.3 | > 31.3 | –
15 | O=C(NNc1cccc(F)c1)c1ccc(F)cn1 [Compound 3a] | >31.3 | >31.3 | >31.3 | – | – | – | –
16 | COc1cccc(NNC(=O)c2ccc(F)cn2)c1 [Compound 3c] | >31.3 | >31.3 | >31.3 | – | – | – | –
17 | COc1ccc(NNC(=O)c2ccc(F)cn2)cc1 [Compound 3f] | >31.3 | >31.3 | >31.3 | – | – | – | –

Row | Structure (SMILES) | MIC [1] [μg/mL^−1] | MIC [2] [μg/mL^−1] | MIC [3] [μg/mL^−1] | MIC [1, 4] [µg/mL] | MIC [2, 5] [µg/mL] | MIC [3, 6] [µg/mL] | MIC (highest activity against strain S) [3] [j·tg mL^−1]
18 | O=C(NNc1cccc(F)c1)c1ccc(Br)cn1 [Compound 4a] | >31.3 | >31.3 | >31.3 | – | – | – | –
19 | COc1cccc(NNC(=O)c2ccc(Br)cn2)c1 [Compound 4c] | – | – | – | 15.6 (≈ 48.4 µM) | 7.8 (≈ 24.2 µM) | > 31.3 | –
20 | O=C(NNc1ccc(F)cc1)c1cccc(F)n1 [Compound 5d] | – | – | – | 31.3 (≈ 126 µM) | 15.6 (≈ 62.6 µM) | 15.6 (≈ 62.6 µM) | –
21 | O=C(NNc1ccc(Cl)cc1)c1cccc(F)n1 [Compound 5e] | – | – | – | – | – | – | 15.6
22 | COc1ccc(NNC(=O)c2cccc(F)n2)cc1 [Compound 5f] | – | – | – | > 31.3 | > 31.3 | 15.6 (≈ 59.7 µM) | 15.6
23 | O=C(NNc1cccc(F)c1)c1ncc(F)cc1F [Compound 7a] | >31.3 | >31.3 | >31.3 | – | – | – | –
24 | O=C(NNc1ccc(F)cc1)c1ncc(F)cc1F [Compound 7d] | – | – | – | > 31.3 | > 31.3 | > 31.3 | –
25 | COc1ccc(NNC(=O)c2ncc(F)cc2F)cc1 [Compound 7f] | – | – | – | 31.3 (≈ 112 µM) | 31.3 (≈ 112 µM) | 31.3 (≈ 112 µM) | –
26 | O=C(NNc1cccc(F)c1)c1nc(F)ccc1F [Compound 8a] | >31.3 | >31.3 | >31.3 | – | – | – | –
27 | O=C(NNc1ccc(F)cc1)c1nc(F)ccc1F [Compound 8d] | – | – | – | 31.3 (≈ 117 µM) | 15.6 (≈ 58.4 µM) | > 31.3 | –
28 | COc1ccc(NNC(=O)c2nc(F)ccc2F)cc1 [Compound 8f] | – | – | – | 31.3 (≈ 112 µM) | 15.6 (≈ 55.9 µM) | 31.3 (≈ 112 µM) | –
29 | O=C(NNc1cccc(F)c1)c1cnccn1 [Compound 9a] | >31.3 | >31.3 | >31.3 | – | – | – | –
30 | O=C(NNc1cccc(Cl)c1)c1cnccn1 [Compound 9b] | – | – | – | > 31.3 | > 31.3 | > 31.3 | –
31 | COc1cccc(NNC(=O)c2cnccn2)c1 [Compound 9c] | – | – | – | 15.6 (≈ 63.9 µM) | 7.8 (≈ 31.9 µM) | > 31.3 | –
32 | COc1ccc(NNC(=O)c2cnccn2)cc1 [Compound 9f] | – | – | – | 31.3 (≈ 128 µM) | 31.3 (≈ 128 µM) | 31.3 (≈ 128 µM) | –
33 | O=C(NNc1ccc(F)cc1F)c1cnccn1 [Compound 9g] | – | – | – | > 31.3 | > 31.3 | > 31.3 | –

From US20240425464A1, “Substituted Monohydrazides as Potent Antifungal Agents” (University of Kentucky Research Foundation, priority 2023, published 2024)
